Data from ChEMBL document CHEMBL1123608, “In vivo antitumor activity of 6-benzyl-1,3-benzodioxole derivatives against the P388, L1210, B16, and M5076 murine models” (1987).
Several values for one entry are separate records, joined by “and”; a condition that tells them apart may be missing. Equal values may be shown once. Activity calls are given as the source filed them. The calls are words filed in the database; no cut-off is given here.

How the values were obtained:
Mus musculus [1] = assay: In vivo antitumor activity against the B16 melanoma cell line expressed as percent increase in life span at 1 mg/kg dose; assay type: functional
Mus musculus [2] = assay: In vivo antitumor activity against the L1210 leukemia cell line expressed as percent increase in life span; IA means inactive; assay type: functional, organism-based
Mus musculus [3] = assay: In vivo antitumor activity against the M5076 reticulum cell sarcoma expressed as percent increase in life span at 4 mg/kg dose; assay type: functional
Mus musculus [4] = assay: In vivo antitumor activity against the B16 melanoma cell line expressed as percent increase in life span; IA means inactive; assay type: functional, organism-based
Mus musculus [5] = assay: Percent increase in life span (ILS) was measured on P388 cells which were inoculated intraperitoneally in CD2F1 mice at 8 mg/kg; assay type: functional; details: P388, ip, route intraperitoneal
[6] = Ability to inhibit the dibutyryl-cAMP-induced change of an immature glioma cell to a mature, differentiated astrocyte by in vitro astrocytoma assay at 0.1 ug/mL dose (Experiment #2); value may range from 0 to 5; assay type: functional, Mus musculus
[7] = Ability to inhibit the dibutyryl-cAMP-induced change of an immature glioma cell to a mature, differentiated astrocyte by in vitro astrocytoma assay at 0.1 ug/mL dose (Experiment #1); value may range from 0 to 5; assay type: functional, Mus musculus
[8] = Ability to inhibit the dibutyryl-cAMP-induced change of an immature glioma cell to a mature, differentiated astrocyte by in vitro astrocytoma assay at 10 ug/mL dose (Experiment #1); value may range from 91 to up; assay type: functional, Mus musculus
[9] = Ability to inhibit the dibutyryl-cAMP-induced change of an immature glioma cell to a mature, differentiated astrocyte by in vitro astrocytoma assay at 10 ug/mL dose (Experiment #2); value may range from 91 to up; assay type: functional, Mus musculus
[10] = Ability to inhibit the dibutyryl-cAMP-induced change of an immature glioma cell to a mature, differentiated astrocyte by in vitro astrocytoma assay at 1 ug/mL dose (Experiment #1); value may range from 51 to 70; assay type: functional, Mus musculus
[11] = Ability to inhibit the dibutyryl-cAMP-induced change of an immature glioma cell to a mature, differentiated astrocyte by in vitro astrocytoma assay at 1 ug/mL dose (Experiment #2); value may range from 51 to 70; assay type: functional, Mus musculus
[12] = Ability to inhibit the dibutyryl-cAMP-induced change of an immature glioma cell to a mature, differentiated astrocyte by in vitro astrocytoma assay at 100 ug/mL dose (Experiment #1); value may range from 16 to 30; assay type: functional, Mus musculus
[13] = Ability to inhibit the dibutyryl-cAMP-induced change of an immature glioma cell to a mature, differentiated astrocyte by in vitro astrocytoma assay at 100 ug/mL dose (Experiment #2); value may range from 16 to 30; assay type: functional, Mus musculus
[14] = Ability to inhibit the dibutyryl-cAMP-induced change of an immature glioma cell to a mature, differentiated astrocyte by in vitro astrocytoma assay at 10 ug/mL dose (Experiment #1); value may range from 6 to 15; assay type: functional, Mus musculus
[15] = Ability to inhibit the dibutyryl-cAMP-induced change of an immature glioma cell to a mature, differentiated astrocyte by in vitro astrocytoma assay at 10 ug/mL dose (Experiment #2); value may range from 0 to 5; assay type: functional, Mus musculus
[16] = Ability to inhibit the dibutyryl-cAMP-induced change of an immature glioma cell to a mature, differentiated astrocyte by in vitro astrocytoma assay at 1 ug/mL dose (Experiment #1); value may range from 0 to 5; assay type: functional, Mus musculus
Mus musculus [17] = assay: The percent increase in life span on P388 cells which were inoculated intraperitoneally in CD2F1 mice at 100 mg/kg dose placed at ranking order 4; assay type: functional; details: P388, ip, route intraperitoneal
Mus musculus [18] = assay: The percent increase in life span on P388 cells which were inoculated intraperitoneally in CD2F1 mice at 200 mg/kg dose placed at ranking order 3; assay type: functional; details: P388, ip, route intraperitoneal
Mus musculus [19] = assay: In vivo antitumor activity against the M5076 reticulum cell sarcoma expressed as percent increase in life span; IA means inactive; assay type: functional, organism-based
Mus musculus [20] = assay: Percent increase in life span (ILS) was measured on P388 cells which were inoculated intraperitoneally in CD2F1 mice; assay type: functional
Mus musculus [21] = assay: The percent increase in life span on P388 cells which were inoculated intraperitoneally in CD2F1 mice at 100 mg/kg dose placed at ranking order 1; assay type: functional; details: P388, ip, route intraperitoneal
Mus musculus [22] = assay: The percent increase in life span on P388 cells which were inoculated intraperitoneally in CD2F1 mice at 100 mg/kg dose placed at ranking order 2; assay type: functional; details: P388, ip, route intraperitoneal
[23] = Ability to inhibit the dibutyryl-cAMP-induced change of an immature glioma cell to a mature, differentiated astrocyte by in vitro astrocytoma assay at 1 ug/mL dose (Experiment #2); value may range from 0 to 5; assay type: functional, Mus musculus
Mus musculus [24] = assay: The percent increase in life span on P388 cells which were inoculated intraperitoneally in CD2F1 mice at 240 mg/kg dose placed at ranking order 1; assay type: functional; details: P388, ip, route intraperitoneal
Mus musculus [25] = assay: The percent increase in life span on P388 cells which were inoculated intraperitoneally in CD2F1 mice at 200 mg/kg dose placed at ranking order 1; assay type: functional; details: P388, ip, route intraperitoneal
Mus musculus [26] = assay: The percent increase in life span on P388 cells which were inoculated intraperitoneally in CD2F1 mice at 300 mg/kg dose placed at ranking order 4; assay type: functional; details: P388, ip, route intraperitoneal
Mus musculus [27] = assay: In vivo antitumor activity against the B16 melanoma cell line expressed as percent increase in life span at 100 mg/kg dose; assay type: functional
Mus musculus [28] = assay: In vivo antitumor activity against the B16 melanoma cell line expressed as percent increase in life span at 200 mg/kg dose; assay type: functional
Mus musculus [29] = assay: In vivo antitumor activity against the L1210 leukemia cell line expressed as percent increase in life span at 200 mg/kg dose; assay type: functional; details: dose 200 mg/kg
Mus musculus [30] = assay: In vivo antitumor activity against the M5076 reticulum cell sarcoma expressed as percent increase in life span at 500 mg/kg dose; assay type: functional
Mus musculus [31] = assay: The percent increase in life span on P388 cells which were inoculated intraperitoneally in CD2F1 mice at 400 mg/kg dose placed at ranking order 2; assay type: functional; details: P388, ip, route intraperitoneal
Mus musculus [32] = assay: In vivo antitumor activity against the B16 melanoma cell line expressed as percent increase in life span at 10 mg/kg dose; assay type: functional
Mus musculus [33] = assay: In vivo antitumor activity against the B16 melanoma cell line expressed as percent increase in life span at 8 mg/kg dose; assay type: functional
Mus musculus [34] = assay: In vivo antitumor activity against the L1210 leukemia cell line expressed as percent increase in life span at 4 mg/kg dose; assay type: functional
Mus musculus [35] = assay: In vivo antitumor activity against the L1210 leukemia cell line expressed as percent increase in life span at 8 mg/kg dose; assay type: functional
Mus musculus [36] = assay: In vivo antitumor activity against the M5076 reticulum cell sarcoma expressed as percent increase in life span at 32 mg/kg dose; assay type: functional
Mus musculus [37] = assay: Percent increase in life span (ILS) was measured on P388 cells which were inoculated intraperitoneally in CD2F1 mice at 16 mg/kg; assay type: functional; details: P388, ip, route intraperitoneal
Mus musculus [38] = assay: In vivo antitumor activity against the B16 melanoma cell line determined as number of cured out of the number tested at 10 mg/kg dose ( out of 10 mice); assay type: functional
Mus musculus [39] = assay: In vivo antitumor activity against the B16 melanoma cell line determined as number of cured out of the number tested at 8 mg/kg dose ( out of 6 mice); assay type: functional
Mus musculus [40] = assay: In vivo antitumor activity against the L1210 leukemia cell line determined as number of cured out of the number tested at 8 mg/kg dose ( out of 8 mice); assay type: functional
Mus musculus [41] = assay: In vivo antitumor activity against the L1210 leukemia cell line determined as number of cured out of the number tested at 4 mg/kg dose ( out of 10 mice); assay type: functional
Mus musculus [42] = organism: Mus musculus; assay: P388 activity determined as number of cured out of the number tested in 6 CD2F1 mice; assay type: functional

Structure (SMILES): COc1cc([C@@H]2c3cc4c(cc3[C@H](O)[C@H]3COC(=O)[C@H]23)OCO4)cc(OC)c1OC [PODOFILOX]
- ILS at 1 mg/kg (Mus musculus [1]): 28%
- ILS (Mus musculus [2]): inactive
- ILS at 4 mg/kg (Mus musculus [3]): 46%
- ILS (Mus musculus [4]): inactive
- ILS at 8 mg/kg (Mus musculus [5]): 52%

Structure (SMILES): COc1cc2c(c(OC)c1OC)-c1ccc(OC)c(=O)cc1[C@@H](NC(C)=O)CC2 [COLCHICINE]
- Astrocyte reversal [6]: 0%
- Astrocyte reversal [7]: 0%
- Astrocyte reversal [8]: 91%
- Astrocyte reversal [9]: 91%
- Astrocyte reversal [10]: 51%
- Astrocyte reversal [11]: 51%

Structure (SMILES): COc1ccc(C(C)c2cc3c(cc2OC)OCO3)cc1 (centres undefined)
- Astrocyte reversal [12]: 30%
- Astrocyte reversal [13]: 30%
- Astrocyte reversal [14]: 15%
- Astrocyte reversal [15]: 5%
- Astrocyte reversal [16]: 5%
- ILS at 100 mg/kg (Mus musculus [17]): 53%
- ILS at 200 mg/kg (Mus musculus [18]): 74%
- ILS (Mus musculus [2]): inactive
- ILS (Mus musculus [19]): inactive
- ILS (Mus musculus [4]): inactive
- ILS (Mus musculus [20]): 78%
- ILS at 100 mg/kg (Mus musculus [21]): 78%
- ILS at 100 mg/kg (Mus musculus [22]): 76%
- Astrocyte reversal [23]: 5%

Structure (SMILES): CCCOc1cc2c(cc1C(C)c1ccc(OCC)cc1)OCO2 (centres undefined)
- ILS at 240 mg/kg (Mus musculus [24]): 41%
- ILS (Mus musculus [20]): 41%
- ILS at 100 mg/kg (Mus musculus [22]): 26%

Structure (SMILES): CCOc1ccc(C(C)c2cc3c(cc2OC)OCO3)cc1 (centres undefined)
- ILS at 200 mg/kg (Mus musculus [25]): 78%
- ILS at 200 mg/kg (Mus musculus [18]): 56%
- ILS at 300 mg/kg (Mus musculus [26]): 31%
- ILS at 100 mg/kg (Mus musculus [27]): 29%
- ILS at 200 mg/kg (Mus musculus [28]): 42%
- ILS (Mus musculus [29]): 50% and 24%
- ILS (Mus musculus [30]): 49% and 27%
- ILS at 400 mg/kg (Mus musculus [31]): 61%
- ILS (Mus musculus [20]): 78%

Structure (SMILES): COc1cc([C@@H]2c3cc4c(cc3[C@@H](O[C@@H]3O[C@@H]5CO[C@@H](C)O[C@H]5[C@H](O)[C@H]3O)[C@H]3COC(=O)[C@H]23)OCO4)cc(OC)c1O [ETOPOSIDE]
- ILS at 10 mg/kg (Mus musculus [32]): > 185%
- ILS at 8 mg/kg (Mus musculus [33]): > 176%
- ILS at 4 mg/kg (Mus musculus [34]): 118%
- ILS at 8 mg/kg (Mus musculus [35]): > 511%
- ILS at 32 mg/kg (Mus musculus [36]; Mus musculus, M5076, dose 32 mg/kg): 87%
- ILS (Mus musculus [36]; dose 32 mg/kg): 72%
- ILS at 16 mg/kg (Mus musculus [37]): 219%
- No. of cures (Mus musculus [38]): 6
- No. of cures (Mus musculus [39]): 3
- No. of cures (Mus musculus [40]): 4
- No. of cures (Mus musculus [41]): 2
- No. of cures (Mus musculus [42]): 3
